Data from ChEMBL document CHEMBL1201862, “PubChem BioAssay data set” (2004).
Calls of active or inactive are those of the source.

How the values were obtained:
[1] = cytotoxicity in HMLE control line with eGFP shRNA, dose response, counter-screen for HMLE_sh_ECad selective toxicity project, cell-based, HMLE_sh_eGFP, luminescence (AID 463074); type: functional, Homo sapiens;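 further: HMLE human mammary epithelial cells expressing control shRNA against eGFP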
[2] = Luminescence Cell-Based Dose Retest to Confirm Inhibitors of Cancer Stem Cells. [Related pubchem assays (depositor defined):AID2717, AID2721]; type: functional; conditions: Homo sapiens
[3] = Vero E6 cell cytotoxicity, dose response, cytotoxicity control for non-replicating M. tuberculosis project, secondary assay (AID 492998); type: functional, VeroE6; conditions: Vero C1008
[4] = Counterscreen for AddAB inhibitors: absorbance-based bacterial cell-based high throughput dose response assay for inhibitors of bacterial viability. [Related pubchem assays (depositor defined):AID435030, AID449728, AID449731, AID488942, AID488955, AID488956]; type: functional
cells = type: functional
[5] = THP-1 cell cytotoxicity, dose response, cytotoxicity control for non-replicating M. tuberculosis project (AID 489025); type: functional
Exodeoxyribonuclease V = biological target: T1, Exodeoxyribonuclease V (Escherichia coli (strain K12), UniProt P04993+P07648+P08394); assay: E. coli RecBCD inhibitors, dose response, counter-screen for AddAB inhibitor project, absorbance, V66 E. coli, mutant T4 phage (AID 492957); type: functional, cell-based, Escherichia coli str. K-12 substr. MG1655
T1 sequence (P04993 whole entry): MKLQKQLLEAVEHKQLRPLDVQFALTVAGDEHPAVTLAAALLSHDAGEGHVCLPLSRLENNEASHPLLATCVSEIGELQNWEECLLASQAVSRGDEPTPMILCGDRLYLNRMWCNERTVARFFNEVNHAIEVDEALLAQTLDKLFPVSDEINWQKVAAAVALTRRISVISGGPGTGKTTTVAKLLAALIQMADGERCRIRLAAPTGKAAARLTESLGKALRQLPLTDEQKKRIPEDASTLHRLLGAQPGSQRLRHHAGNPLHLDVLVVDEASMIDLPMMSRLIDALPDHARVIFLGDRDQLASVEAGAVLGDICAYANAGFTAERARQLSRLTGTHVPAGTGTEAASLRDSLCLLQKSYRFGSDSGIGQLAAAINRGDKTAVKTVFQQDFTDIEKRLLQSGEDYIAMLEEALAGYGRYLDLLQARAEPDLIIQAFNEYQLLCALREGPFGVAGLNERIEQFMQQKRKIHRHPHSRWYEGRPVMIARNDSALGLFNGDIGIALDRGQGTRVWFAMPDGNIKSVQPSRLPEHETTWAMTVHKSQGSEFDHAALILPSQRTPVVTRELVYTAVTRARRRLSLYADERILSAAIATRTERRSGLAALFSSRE
T1 sequence (P07648 whole entry): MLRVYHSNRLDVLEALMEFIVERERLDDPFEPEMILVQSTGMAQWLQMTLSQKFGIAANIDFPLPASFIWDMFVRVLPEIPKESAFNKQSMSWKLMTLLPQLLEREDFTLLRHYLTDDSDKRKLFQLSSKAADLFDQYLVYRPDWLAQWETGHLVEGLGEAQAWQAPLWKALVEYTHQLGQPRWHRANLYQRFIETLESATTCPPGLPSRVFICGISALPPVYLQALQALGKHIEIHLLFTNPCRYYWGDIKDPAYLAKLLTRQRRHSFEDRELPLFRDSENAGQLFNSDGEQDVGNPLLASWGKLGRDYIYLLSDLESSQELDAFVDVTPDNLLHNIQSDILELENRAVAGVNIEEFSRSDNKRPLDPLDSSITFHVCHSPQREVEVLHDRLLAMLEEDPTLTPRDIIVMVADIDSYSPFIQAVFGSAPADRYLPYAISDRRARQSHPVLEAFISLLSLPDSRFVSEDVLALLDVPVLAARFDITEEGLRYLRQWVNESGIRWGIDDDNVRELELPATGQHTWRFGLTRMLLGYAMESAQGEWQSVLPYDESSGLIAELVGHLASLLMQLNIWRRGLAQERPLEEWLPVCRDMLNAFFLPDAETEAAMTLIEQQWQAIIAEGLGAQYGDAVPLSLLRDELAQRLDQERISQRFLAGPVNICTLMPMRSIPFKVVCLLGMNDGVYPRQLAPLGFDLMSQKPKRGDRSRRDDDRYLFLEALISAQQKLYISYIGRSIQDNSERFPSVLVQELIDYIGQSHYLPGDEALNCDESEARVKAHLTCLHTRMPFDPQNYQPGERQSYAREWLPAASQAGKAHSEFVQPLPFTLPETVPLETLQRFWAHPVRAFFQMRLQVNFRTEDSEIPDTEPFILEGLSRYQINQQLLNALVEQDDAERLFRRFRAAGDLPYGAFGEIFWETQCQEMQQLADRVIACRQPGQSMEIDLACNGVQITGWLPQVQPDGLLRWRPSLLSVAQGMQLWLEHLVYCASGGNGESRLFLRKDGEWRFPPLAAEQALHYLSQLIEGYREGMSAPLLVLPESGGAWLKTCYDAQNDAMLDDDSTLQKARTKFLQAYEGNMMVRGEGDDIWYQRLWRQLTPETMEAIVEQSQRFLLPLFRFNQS
T1 sequence (P08394 whole entry): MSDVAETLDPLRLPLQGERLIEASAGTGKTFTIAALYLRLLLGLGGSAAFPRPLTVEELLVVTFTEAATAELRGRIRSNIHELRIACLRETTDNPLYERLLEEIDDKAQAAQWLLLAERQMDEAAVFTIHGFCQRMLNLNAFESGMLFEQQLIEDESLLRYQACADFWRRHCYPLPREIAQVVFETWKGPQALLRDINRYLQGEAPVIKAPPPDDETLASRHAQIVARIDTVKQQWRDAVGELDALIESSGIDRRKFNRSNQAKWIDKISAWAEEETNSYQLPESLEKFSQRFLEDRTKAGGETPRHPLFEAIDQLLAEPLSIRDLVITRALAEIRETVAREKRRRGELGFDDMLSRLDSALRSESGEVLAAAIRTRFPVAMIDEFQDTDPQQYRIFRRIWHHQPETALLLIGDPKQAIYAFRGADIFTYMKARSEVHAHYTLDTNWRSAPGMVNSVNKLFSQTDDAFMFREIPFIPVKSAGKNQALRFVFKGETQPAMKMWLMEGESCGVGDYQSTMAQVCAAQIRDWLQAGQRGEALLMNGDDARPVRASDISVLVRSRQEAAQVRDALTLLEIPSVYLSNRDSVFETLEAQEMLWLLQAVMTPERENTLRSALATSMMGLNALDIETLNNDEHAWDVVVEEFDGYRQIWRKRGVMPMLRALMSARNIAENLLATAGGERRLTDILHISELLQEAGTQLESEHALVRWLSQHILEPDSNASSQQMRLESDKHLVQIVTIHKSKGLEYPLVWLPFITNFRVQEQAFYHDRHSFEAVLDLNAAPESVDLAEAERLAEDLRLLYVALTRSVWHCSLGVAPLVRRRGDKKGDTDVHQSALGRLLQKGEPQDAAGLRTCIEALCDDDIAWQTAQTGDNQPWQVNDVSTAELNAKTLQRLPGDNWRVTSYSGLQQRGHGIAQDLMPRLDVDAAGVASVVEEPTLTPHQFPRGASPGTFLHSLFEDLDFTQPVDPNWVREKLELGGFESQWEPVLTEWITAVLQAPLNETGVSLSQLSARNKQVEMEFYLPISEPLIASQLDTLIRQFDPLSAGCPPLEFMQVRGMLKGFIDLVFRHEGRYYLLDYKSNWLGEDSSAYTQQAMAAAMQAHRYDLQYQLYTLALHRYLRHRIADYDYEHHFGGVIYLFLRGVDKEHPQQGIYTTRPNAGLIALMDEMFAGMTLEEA

[6] = tested on: Streptococcus sp. 'group A'; assay: growth inhibition of control SK(-) GAS strain, dose response, counter-screen for streptokinase expression inhibitor project, luminescence, kanamycin, BacTiterGlo, confirmation (AID 1900); type: functional, organism-based
[7] = biological target: Heat shock protein HSP 90-alpha (Homo sapiens, UniProt P07900); type: functional, organism-based
Streptococcus = assay: Group A Streptococcus viability loss, dose response, counter-screen for streptokinase expression inhibitor project, luminescence, BacTiterGlo (AID 1915); type: functional, organism-based;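 further: potency for reduction of bacterial viability or growth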
[8] = inhibitors of intracellular T. cruzi replication, confirmation, NIH3T3 host cells, beta-gal luminescence (AID 2044); type: functional, cell-based;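 further: intracellular parasites grown in NIH/3T3 mouse fibroblasts as host cells; luminescent beta-galactosidase reporter signal from transgenic T. cruzi replicating inside host cells; inhibitors lower the luminescence signal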
Streptokinase A = biological target: T2, Streptokinase A (Streptococcus pyogenes serotype M1, UniProt P10520); assay: S. pyogenes streptokinase expression inhibitors, potency, dose response, plasminogen activation absorbance, OD405 (AID 1914); type: functional, Streptococcus pyogenes M1 GAS;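 further: secreted streptokinase activity via plasminogen activation per viability signal from cell pellet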
T2 sequence (P10520 whole entry): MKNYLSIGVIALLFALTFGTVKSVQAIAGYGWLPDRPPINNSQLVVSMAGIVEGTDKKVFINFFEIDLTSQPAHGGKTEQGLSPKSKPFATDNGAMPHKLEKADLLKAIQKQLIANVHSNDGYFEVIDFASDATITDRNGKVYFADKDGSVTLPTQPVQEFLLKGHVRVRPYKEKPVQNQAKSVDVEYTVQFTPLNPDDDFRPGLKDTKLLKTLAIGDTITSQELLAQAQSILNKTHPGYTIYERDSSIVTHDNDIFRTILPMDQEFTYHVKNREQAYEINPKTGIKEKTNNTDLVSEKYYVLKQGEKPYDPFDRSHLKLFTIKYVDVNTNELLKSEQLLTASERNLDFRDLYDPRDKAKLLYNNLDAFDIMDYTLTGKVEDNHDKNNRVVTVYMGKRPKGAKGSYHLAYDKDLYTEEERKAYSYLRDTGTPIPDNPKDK

[9] = cytotoxicity toward NIH3T3 fibroblasts, dose response, counter-screen, cell-based, ATP luminescence, mouse fibroblasts (AID 2010); type: functional;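 further: cells exposed to compound for about 90 hours before reading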
[10] = biological target: Glucose-6-phosphate 1-dehydrogenase (Homo sapiens, UniProt P11413); assay: human G6PD enzyme inhibitors, dose response, selectivity assay for P. falciparum G6PD inhibitor project, biochemical, fluorescence (AID 504792); type: functional
[11] = biological target: FAD-linked sulfhydryl oxidase ALR (Homo sapiens, UniProt P55789); assay: inhibitors of human ALR sulfhydryl oxidase, dose response, biochemical, H2O2 detection, luminescence, cherry-pick (AID 493248)
[12] = biological target: T3, Heat shock factor protein 1 (Mus musculus, UniProt P38532); assay: inhibition of MG132-induced HSE-luciferase signal, confirmation, cell-based, NIH3T3, luminescence, dose retest (AID 2382); type: functional;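 further: NIH3T3 fibroblasts with HSF1-driven luciferase reporter stressed by proteasome inhibitor MG132; luminescence from HSF1-driven luciferase expression after 8 hours of MG132 stress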
T3 sequence (P38532 whole entry): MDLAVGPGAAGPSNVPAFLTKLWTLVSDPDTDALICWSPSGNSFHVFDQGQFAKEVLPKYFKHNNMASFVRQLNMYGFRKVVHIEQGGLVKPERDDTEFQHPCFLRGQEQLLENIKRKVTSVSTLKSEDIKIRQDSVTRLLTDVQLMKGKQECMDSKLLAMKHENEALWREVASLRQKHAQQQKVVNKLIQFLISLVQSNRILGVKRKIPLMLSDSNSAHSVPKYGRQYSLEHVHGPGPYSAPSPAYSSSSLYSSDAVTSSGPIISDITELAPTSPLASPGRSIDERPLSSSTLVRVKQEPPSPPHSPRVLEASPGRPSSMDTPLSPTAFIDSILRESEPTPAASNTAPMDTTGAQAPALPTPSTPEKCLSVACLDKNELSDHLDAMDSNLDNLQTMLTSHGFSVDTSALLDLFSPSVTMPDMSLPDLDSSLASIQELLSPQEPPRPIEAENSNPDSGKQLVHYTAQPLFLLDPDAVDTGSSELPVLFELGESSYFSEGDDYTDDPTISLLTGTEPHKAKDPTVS

Chain of Glucose-6-phosphate 1-dehydrogenase (P11413 whole entry): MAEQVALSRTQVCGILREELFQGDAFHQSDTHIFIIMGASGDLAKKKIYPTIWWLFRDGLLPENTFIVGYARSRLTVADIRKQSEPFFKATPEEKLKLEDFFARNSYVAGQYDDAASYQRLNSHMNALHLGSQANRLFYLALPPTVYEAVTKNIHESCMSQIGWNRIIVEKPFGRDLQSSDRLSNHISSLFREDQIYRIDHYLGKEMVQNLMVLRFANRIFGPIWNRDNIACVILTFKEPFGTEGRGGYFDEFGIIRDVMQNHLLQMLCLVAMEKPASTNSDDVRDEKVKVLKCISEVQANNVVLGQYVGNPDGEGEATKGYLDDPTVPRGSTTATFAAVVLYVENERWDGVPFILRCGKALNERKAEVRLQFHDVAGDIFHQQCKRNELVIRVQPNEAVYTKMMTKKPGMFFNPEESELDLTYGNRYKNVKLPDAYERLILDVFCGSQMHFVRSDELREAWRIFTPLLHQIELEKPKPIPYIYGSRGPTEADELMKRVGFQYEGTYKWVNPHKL
Chain of FAD-linked sulfhydryl oxidase ALR (P55789 whole entry): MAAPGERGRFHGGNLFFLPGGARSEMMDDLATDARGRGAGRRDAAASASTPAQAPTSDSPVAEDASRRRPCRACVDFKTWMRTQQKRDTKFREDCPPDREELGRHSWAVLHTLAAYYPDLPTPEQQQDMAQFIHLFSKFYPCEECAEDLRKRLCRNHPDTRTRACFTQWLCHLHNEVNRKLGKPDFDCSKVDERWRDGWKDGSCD

Q: Which AC50 [1] does the source give for `CCN(CC)CCNCc1ccc(-c2ccc(Cl)cc2)o1` here?
A: 20.9 µM (active)

Q: What about the AC50 [2] of the same compound?
A: 8.94 µM (active)

Q: With `NC(=NOC(=O)c1ccccc1Cl)c1ncc([N+](=O)[O-])s1` as the compound, how does the CC50 [3] read?
A: > 20 µM (active)

Q: And the IC50 [4]?
A: > 119 µM (inactive)

Q: What about the IC50 (cells) of the same compound?
A: 3.81 µM (active)

Q: And the CC50 [5]?
A: 34.4 µM (active)

Q: And the IC50 (Exodeoxyribonuclease V)?
A: > 119 µM (inactive)

Q: With `CCCC(=O)NC(c1ccco1)c1cc(Cl)c2cccnc2c1O` (configuration not stated) as the compound, how does the EC50 [6] read?
A: 1.18 µM (active)

Q: What about the IC50 [4] of the same compound?
A: > 119 µM (inactive)

Q: And the AC50 [7]?
A: 4.25 µM (active)

Q: And the EC50 (Streptococcus)?
A: 32 µM (active)

Q: What about the EC50 [8] of the same compound?
A: 3.44 µM (active)

Q: And the EC50 (Streptokinase A)?
A: > 150 µM (not active)

Q: What about the EC50 [9] of the same compound?
A: 5.04 µM (active)

Q: What about the IC50 (Exodeoxyribonuclease V) of the same compound?
A: > 119 µM (inactive)

Q: With `COc1ccc(CCNC(=O)c2cc(-c3ccc(Cl)c(Cl)c3)oc2C)cc1` as the compound, how does the EC50 [6] read?
A: 7.72 µM (active)

Q: What about the AC50 [1] of the same compound?
A: 48.4 µM (active)

Q: What about the EC50 (Streptococcus) of the same compound?
A: 22.4 µM (active)

Q: And the EC50 (Streptokinase A)?
A: 6.21 µM (inconclusive)

Q: What about the AC50 [2] of the same compound?
A: 3.04 µM (active)

Q: Which results are given for `Oc1ccc(C23CC4CC(CC(C4)C2)C3)cc1O`?
A: IC50 [10]: > 80 µM (inactive); AC50 [11]: 4.17 µM (active)

Q: What does the source list for `COc1ccc2nc(NC(=O)CCNC(=O)c3ccco3)sc2c1`?
A: IC50 [4]: > 119 µM (inactive); IC50 (Exodeoxyribonuclease V): > 119 µM (inactive)

Q: For `CC(C)(C)c1ccc2c(c1)OC(C(=O)N/N=C\c1ccc[nH]1)CO2` (configuration not stated), which AC50 [1] is on record?
A: 23 µM (active)

Q: And the AC50 [2]?
A: 1.94 µM (active)

Q: And the EC50 [12]?
A: 0.436 µM (active)
